Source: ChEMBL document CHEMBL1129145, “Phosphonate-containing analogs of cholesteryl ester as novel inhibitors of cholesteryl ester transfer protein” (Bioorg Med Chem Lett, 1996)

Columns and labels:
[1] = molecular target: T1, Cholesteryl ester transfer protein (Homo sapiens, UniProt P11597); assay: Tested for inhibition of [3H]cholesteryl linoleate(CE) transfer from donor HDL to acceptor LDL driven by recombinant human Cholesteryl ester transfer protein
T1 sequence (P11597 whole entry): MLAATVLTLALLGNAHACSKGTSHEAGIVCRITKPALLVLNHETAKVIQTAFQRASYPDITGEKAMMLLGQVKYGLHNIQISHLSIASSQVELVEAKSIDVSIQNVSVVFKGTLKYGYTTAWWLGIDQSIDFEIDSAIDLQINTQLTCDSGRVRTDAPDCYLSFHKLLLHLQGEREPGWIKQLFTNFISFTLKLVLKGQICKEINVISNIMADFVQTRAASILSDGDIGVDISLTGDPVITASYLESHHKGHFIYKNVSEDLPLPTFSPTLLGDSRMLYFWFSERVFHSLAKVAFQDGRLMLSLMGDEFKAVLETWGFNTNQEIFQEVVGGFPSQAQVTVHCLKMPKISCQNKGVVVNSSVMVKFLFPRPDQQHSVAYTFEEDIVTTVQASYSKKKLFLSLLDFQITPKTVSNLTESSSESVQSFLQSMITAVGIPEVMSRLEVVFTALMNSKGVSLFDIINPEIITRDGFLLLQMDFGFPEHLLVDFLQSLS

[2] = molecular target: T1, Cholesteryl ester transfer protein; assay: Tested for inhibition of [3H]cholesteryl linoleate(CE) transfer from donor HDL to acceptor LDL driven by recombinant human Cholesteryl ester transfer protein; Inactive
[3] = molecular target: T1, Cholesteryl ester transfer protein; assay: Tested for inhibition of [3H]cholesteryl linoleate(CE) transfer from donor HDL to acceptor LDL driven by recombinant human cholesteryl ester transfer protein; inactive
[4] = molecular target: T1, Cholesteryl ester transfer protein; assay: Tested for inhibition of [3H]cholesteryl linoleate(CE) transfer from donor HDL to acceptor LDL driven by recombinant human cholesteryl ester transfer protein; Inactive
[5] = molecular target: T1, Cholesteryl ester transfer protein; assay: Tested for inhibition of [3H]cholesteryl linoleate(CE) transfer from donor HDL to acceptor LDL driven by recombinant human cholesteryl ester transfer protein
[6] = molecular target: T2, Cholesteryl ester transfer protein (Homo sapiens) (UniProt P11597); assay: Tested for inhibition of [3H]cholesteryl linoleate(CE) transfer from donor HDL to acceptor LDL driven by recombinant human cholesteryl ester transfer protein at 30 micro M
T2 sequence (whole entry): T1 sequence (P11597 whole entry)

[7] = molecular target: T2, Cholesteryl ester transfer protein (Homo sapiens); assay: Tested for inhibition of [3H]cholesteryl linoleate(CE) transfer from donor HDL to acceptor LDL driven by recombinant human Cholesteryl ester transfer protein at 30 micro M

| IC50 [1] [µM] | SMILES | IC50 [2] | other results |
| --- | --- | --- | --- |
| 4 | CCCCCCCCCCCCCCCP(=O)(O)OCc1ccccc1 |  |  |
| 15 | CCCCCCCCCCCCCCP(=O)(O)OCc1ccoc1 |  |  |
| 6 | CCCCCCCCCCCCCCP(=O)(O)OCc1cccc(Oc2ccccc2)c1 |  |  |
| 5 | CCCCCCCCCCCCCCP(=O)(O)OCc1ccccc1 |  |  |

The next lines start with the compound.

| SMILES | IC50 [1] [µM] | IC50 [2] | other results |
| --- | --- | --- | --- |
| CCCCCCCCCCCCCCCCCC[PH](=O)OCc1ccccc1 (stereo not given) |  | Not Active |  |
| CCCCCCCCCCCCCCCCCC[PH](=O)O[C@H]1CC[C@@]2(C)C(CC[C@H]3[C@@H]4CC[C@H]([C@H](C)CCCC(C)C)[C@@]4(C)CC[C@@H]32)C1 (stereo not given in full) |  |  | IC50 [3]: Not Active |
| CCCCCCCCCCCCCCCCCCP(=O)(O)OCc1cccnc1 |  | Not Active |  |
| CCCCCCCCCCCCCCCCCCP(=O)(OC)OCc1ccccc1 (stereo not given) |  |  | IC50 [4]: Not Active |
| CCCCCCCCCCCCCCCCCCP(=O)(O)CCc1ccccc1 |  |  | IC50 [5]: 14 µM |
| CCCCCCCCCCCCCCCCCCP(=O)(O)Oc1cc2ccccc2c2ccccc12 |  | Not Active |  |
| CCCCCCCCCCCCCCCCCCP(=O)(O)OC |  |  | inhibition [6]: 46% |
| CCCCCCCCCCCCCCP(=O)(O)Oc1ccc2ccccc2c1 | 24 |  |  |
| CCCCCCCCCC[PH](=O)OCc1ccccc1 (stereo not given) |  | Not Active |  |
| CCCCCCCCCCCCCCCCCCP(=O)(O)OC1c2ccccc2-c2ccccc21 |  | Not Active |  |
| CCCCCCCCCCCCCCCCCC[PH](=O)O |  |  | inhibition [7]: 28% |
| CCCCCCCCCCCCCCCCCCP(=O)(O)Oc1ccc2c(c1)Cc1ccccc1-2 |  | Not Active |  |
| CCCCCCCCCCCCCCCCCCP(=O)(O)O[C@H]1CC[C@@]2(C)C(CC[C@H]3[C@@H]4CC[C@H]([C@H](C)CCCC(C)C)[C@@]4(C)CC[C@@H]32)C1 (stereo not given in full) |  |  | inhibition [7]: 30% |
| CCCCCCCCCCCCCCCCCCP(=O)(O)OCc1ccccc1 |  |  | IC50 [5]: 2 µM |
| CCCCCC[PH](=O)OCc1ccccc1 (stereo not given) |  | Not Active |  |
| CCCCCCCCCCCCCc1n[nH]c(=S)n1-c1ccccc1 | 1.5 |  |  |
